In US20060286547A1, “Time-of-addition assay for identifying anti-viral compounds” (priority 2003, published 2006):

Test system: HIV-1 (strain 111B)
Test: Time-of-addition assay with luminescent cells in 96- and 384-well plates
Type: cell-based
Conditions: early stages of addition; ATA 5 μM, AMD3100 and T20 1 μM; 96-well and 384-well plates; FIG. 6 and FIG. 7
Experimental: A MT4 cell line was used In the present example expressing a luciferase reporter gene under the control of a HIV-1-LTR promoter element. Cells were counted and a cell suspension of 500.000 ml or 350.000 ml was made for use in 96-well or 384 wells, respectively. The cells were centrifuged for 10 minutes at 400 g. Subsequently, cells were infected with at high multiplicity of infection with HIV-1 (strain 111B) at a host cell/virus titer of 1/1. Unabsorbed virus was removed by two washing steps in order to synchronize the infection. After the second washing step, cells were resuspended and the suspensions were distributed in the wells of a micro-titer plate in an amount of 95 μl or 36 μl in a 96-well or a 384 well format, respectively. At predefined time points 5 μl (96 well) and 4 μl (384 well) of compound was added. As compounds to be tested, reference compounds having well known mechanisms of action were included in the plates. […]
ATA was used in a concentration of 5 μM; AMD3100, T20 EFV ad SQV were used in a concentration of 1 μM and TMC143205 was used in a concentration of 1 μM. […] 100 μl Luc-lit™ substrate was added to each well and luminescence was monitored by processing the 96- and 384-well plates in a PerkinElmer-Viewlux™ within 30 minutes. HIV replication was quantified by measuring the luciferase signal.

Row | Compound | inhibitory activity as a function of time of addition
1 | O=C(O)C1=CC(=C(c2ccc(O)c(C(=O)O)c2)c2ccc(O)c(C(=O)O)c2)C=CC1=O [ATA] | strong inhibitory activity
2 | c1cc(CN2CCCNCCNCCCNCC2)ccc1CN1CCCNCCNCCCNCC1 [AMD3100] | strong inhibitory activity
